Assay results from patent publication US20250114345A1, “COMPOUNDS AND COMPOSITIONS AS CBP/P300 DEGRADERS AND USES THEREOF” (Oncopia Therapeutics, Inc. d/b/a/ SK Life Science Labs, priority 2023, published 2025).

Biological target: T1, p300 (Homo sapiens, UniProt Q09472)
T1 construct: host or cells: A549 P300 HiBit cells
Experiment: P300 degradation, HiBit technology in A549 P300 HiBit cells (2 h)
Format: cell-based
Settings: 2 hrs post treatment; for Dmax: A549, A549 P300 HiBit cells; for DC50: A549 P300 HiBit cells
How it was run: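 A549 cells carrying HiBit-tagged p300 or CBP, seeded overnight at 37 °C/5% CO2, then treated with serial compound dilutions from 10 mM DMSO stocks. Incubation was 2 h for p300 and 24 h for CBP, followed by HiBit lytic detection reagent for 10 min at room temperature. Luminescence read gave degradation potency and Dmax.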

T1 sequence (Q09472 whole entry): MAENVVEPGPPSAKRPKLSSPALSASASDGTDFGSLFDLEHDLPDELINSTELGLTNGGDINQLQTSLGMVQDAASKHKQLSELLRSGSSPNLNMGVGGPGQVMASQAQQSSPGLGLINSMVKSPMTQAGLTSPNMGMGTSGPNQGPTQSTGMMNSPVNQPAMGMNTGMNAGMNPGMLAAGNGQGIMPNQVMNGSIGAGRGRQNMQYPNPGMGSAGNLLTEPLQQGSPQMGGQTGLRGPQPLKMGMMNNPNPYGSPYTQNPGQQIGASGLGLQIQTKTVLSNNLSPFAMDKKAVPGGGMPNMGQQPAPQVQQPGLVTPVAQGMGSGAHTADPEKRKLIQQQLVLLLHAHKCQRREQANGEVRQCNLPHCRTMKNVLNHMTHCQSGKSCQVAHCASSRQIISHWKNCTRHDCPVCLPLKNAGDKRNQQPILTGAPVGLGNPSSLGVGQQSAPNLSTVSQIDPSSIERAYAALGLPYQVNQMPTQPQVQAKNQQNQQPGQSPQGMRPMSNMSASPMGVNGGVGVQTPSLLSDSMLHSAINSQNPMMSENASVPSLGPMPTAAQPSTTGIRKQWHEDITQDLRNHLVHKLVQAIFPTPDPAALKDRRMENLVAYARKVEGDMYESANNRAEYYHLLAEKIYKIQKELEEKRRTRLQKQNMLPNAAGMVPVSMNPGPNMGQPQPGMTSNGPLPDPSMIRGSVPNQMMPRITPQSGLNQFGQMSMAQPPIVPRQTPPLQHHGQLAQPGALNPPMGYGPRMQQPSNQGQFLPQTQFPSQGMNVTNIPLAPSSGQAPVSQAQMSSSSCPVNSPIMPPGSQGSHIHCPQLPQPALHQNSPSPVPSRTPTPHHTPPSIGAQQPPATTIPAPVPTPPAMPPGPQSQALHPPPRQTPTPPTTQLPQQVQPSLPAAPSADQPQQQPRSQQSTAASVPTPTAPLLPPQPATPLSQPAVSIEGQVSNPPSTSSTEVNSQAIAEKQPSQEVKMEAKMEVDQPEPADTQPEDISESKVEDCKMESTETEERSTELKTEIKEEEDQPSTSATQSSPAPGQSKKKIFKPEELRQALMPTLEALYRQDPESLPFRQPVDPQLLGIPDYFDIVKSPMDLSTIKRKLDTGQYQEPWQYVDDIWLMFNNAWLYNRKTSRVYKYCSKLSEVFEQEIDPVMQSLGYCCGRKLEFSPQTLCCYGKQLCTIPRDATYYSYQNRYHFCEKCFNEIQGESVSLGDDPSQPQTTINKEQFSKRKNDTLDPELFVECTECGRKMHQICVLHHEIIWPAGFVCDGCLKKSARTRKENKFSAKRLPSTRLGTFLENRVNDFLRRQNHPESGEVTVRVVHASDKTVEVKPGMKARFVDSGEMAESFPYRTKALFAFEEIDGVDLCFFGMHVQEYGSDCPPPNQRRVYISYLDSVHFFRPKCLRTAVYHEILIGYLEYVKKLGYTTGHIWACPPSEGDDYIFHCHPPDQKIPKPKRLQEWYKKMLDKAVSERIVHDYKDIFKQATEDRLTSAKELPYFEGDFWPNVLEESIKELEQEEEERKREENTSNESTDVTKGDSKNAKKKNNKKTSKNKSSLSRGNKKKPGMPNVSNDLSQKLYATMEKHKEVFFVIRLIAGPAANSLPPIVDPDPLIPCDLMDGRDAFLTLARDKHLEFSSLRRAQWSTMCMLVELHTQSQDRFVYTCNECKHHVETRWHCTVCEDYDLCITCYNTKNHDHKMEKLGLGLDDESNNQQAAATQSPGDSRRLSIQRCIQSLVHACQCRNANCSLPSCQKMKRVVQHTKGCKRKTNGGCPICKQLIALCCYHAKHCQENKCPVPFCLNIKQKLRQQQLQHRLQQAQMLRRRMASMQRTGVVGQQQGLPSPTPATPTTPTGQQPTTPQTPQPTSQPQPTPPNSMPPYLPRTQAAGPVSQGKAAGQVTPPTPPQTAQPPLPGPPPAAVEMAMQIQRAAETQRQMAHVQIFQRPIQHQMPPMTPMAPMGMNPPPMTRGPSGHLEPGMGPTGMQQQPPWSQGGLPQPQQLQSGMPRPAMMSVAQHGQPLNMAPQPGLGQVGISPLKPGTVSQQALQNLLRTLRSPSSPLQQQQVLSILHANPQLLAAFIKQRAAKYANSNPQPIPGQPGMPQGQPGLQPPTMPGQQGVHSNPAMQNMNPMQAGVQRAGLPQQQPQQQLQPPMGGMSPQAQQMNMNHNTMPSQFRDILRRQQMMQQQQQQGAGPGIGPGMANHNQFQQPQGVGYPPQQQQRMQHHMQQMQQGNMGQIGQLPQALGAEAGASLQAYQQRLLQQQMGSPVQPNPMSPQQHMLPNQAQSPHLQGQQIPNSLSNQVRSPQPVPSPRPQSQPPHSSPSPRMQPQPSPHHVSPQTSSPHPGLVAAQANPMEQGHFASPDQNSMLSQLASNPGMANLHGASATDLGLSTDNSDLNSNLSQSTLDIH

SMILES	Dmax [%]	DC50 [nM]
Cn1c(=O)ccc2c(N3CCCc4nc(-c5ccc(C(=O)NCC#Cc6ccc7occ(C8CCC(=O)NC8=O)c7c6)nc5)ncc43)cc(C3CCOCC3)cc21 (stereo not shown) [Example B105, N-(3-(3-(2,6-dioxopiperidin-3-yl)benzofuran-5-yl)prop-2-yn-1-yl)-5-(5-(1-methyl-2-oxo-7-(tetrahydro-2H-pyran-4-yl)-1,2-dihydro-quinolin-5-yl)-5,6,7,8-tetrahydropyrido[3,2-d]pyrimidin-2-yl)picolinamide]	< 20	> 1000
Cc1cc2c(N3CCCc4nc(-c5ccc(C(=O)NCC=C=Cc6ccc7occ(C8CCC(=O)NC8=O)c7c6)nc5)ncc43)cc(C3CCOCC3)cc2n(C)c1=O (stereo not shown) [Example B116, 5-(5-(1,3-dimethyl-2-oxo-7-(tetrahydro-2H-pyran-4-yl)-1,2-dihydroquinolin-5-yl)-5,6,7,8-tetrahydropyrido[3,2-d]pyrimidin-2-yl)-N-(4-(3-(2,6-dioxopiperidin-3-yl)benzofuran-5-yl)buta-2,3-dien-1-yl)picolinamide]	40 to 59	10 to 99
CCc1cc2c(cc(C)c(=O)n2C)c(N2CCCc3nc(-c4ccc(C(=O)NCC#Cc5ccc6occ(C7CCC(=O)NC7=O)c6c5)nc4)ncc32)n1 (stereo not shown) [Example B121, N-(3-(3-(2,6-dioxopiperidin-3-yl)benzofuran-5-yl)prop-2-yn-1-yl)-5-(5-(7-ethyl-1,3-dimethyl-2-oxo-1,2-dihydro-1,6-naphthyridin-5-yl)-5,6,7,8-tetrahydropyrido[3,2-d]pyrimidin-2-yl)picolinamide]	40 to 59	1 to 9.9
CCc1cc2c(N3CCCc4nc(-c5ccc(C(=O)NCC#Cc6ccc7occ(C8CCC(=O)NC8=O)c7c6)nc5)ncc43)cc(C3CCOCC3)cc2n(C)c1=O (stereo not shown) [Example B122, N-(3-(3-(2,6-dioxopiperidin-3-yl)benzofuran-5-yl)prop-2-yn-1-yl)-5-(5-(3-ethyl-1-methyl-2-oxo-7-(tetrahydro-2H-pyran-4-yl)-1,2-dihydroquinolin-5-yl)-5,6,7,8-tetrahydropyrido [3,2-d]pyrimidin-2-yl)picolinamide]	< 20	> 1000
Cc1cc2c(N3CCCc4nc(-c5ccc(C(=O)NCC#Cc6ccc7occ(C8CCC(=O)NC8=O)c7c6)nc5)ncc43)cc(C(C)C)cc2n(C)c1=O (stereo not shown) [Example B125, N-(3-(3-(2,6-dioxopiperidin-3-yl)benzofuran-5-yl)prop-2-yn-1-yl)-5-(5-(7-isopropyl-1,3-dimethyl-2-oxo-1,2-dihydroquinolin-5-yl)-5,6,7,8-tetrahydropyrido[3,2-d]pyrimidin-2-yl)picolinamide]	> 80	1 to 9.9
Cc1cc2c(N3CCCc4nc(-c5ccc(C(=O)NCC#Cc6cc7c(C8CCC(=O)NC8=O)cccc7o6)nc5)ncc43)cc(Cl)cc2n(C)c1=O (stereo not shown) [Example B126, 5-(5-(7-chloro-1,3-dimethyl-2-oxo-1,2-dihydroquinolin-5-yl)-5,6,7,8-tetrahydropyrido [3,2-d]pyrimidin-2-yl)-N-(3-(4-(2,6-dioxo-piperidin-3-yl)benzofuran-2-yl)prop-2-yn-1-yl)picolinamide]	> 80	1 to 9.9
Cc1cc2c(N3CCCc4nc(-c5ccc(C(=O)NCC#Cc6ccc7occ(C8CCC(=O)NC8=O)c7c6)nc5)ncc43)nc(N(C)C)cc2n(C)c1=O (stereo not shown) [Example B128, 5-(5-(7-(dimethylamino)-1,3-dimethyl-2-oxo-1,2-dihydro-1,6-naphthyridin-5-yl)-5,6,7,8-tetrahydropyrido[3,2-d]pyrimidin-2-yl)-N-(3-(3-(2,6-dioxopiperidin-3-yl)benzofuran-5-yl)prop-2-yn-1-yl)picolinamide]	> 80	1 to 9.9
Cc1cc2c(N3CCCc4cc(-c5ccc(C(=O)NCC#Cc6ccc7occ(C8CCC(=O)NC8=O)c7c6)nc5)c(F)cc43)cccc2n(C)c1=O (stereo not shown) [Example B129, N-(3-(3-(2,6-dioxopiperidin-3-yl)benzofuran-5-yl)prop-2-yn-1-yl)-5-(7-fluoro-1′,3′-dimethyl-2′-oxo-1′,2′,3,4-tetrahydro-2H-[1,5′-biquinolin]-6-yl)picolinamide]	> 80	1 to 9.9
Cc1cc2c(N3CCCc4nc(-c5ccc(C(=O)NCC#Cc6ccc7occ(C8CCC(=O)NC8=O)c7c6)nc5)ncc43)nc(C(C)C)cc2n(C)c1=O (stereo not shown) [Example B130, N-(3-(3-(2,6-dioxopiperidin-3-yl)benzofuran-5-yl)prop-2-yn-1-yl)-5-(5-(7-isopropyl-1,3-dimethyl-2-oxo-1,2-dihydro-1,6-naphthyridin-5-yl)-5,6,7,8-tetrahydropyrido[3,2-d]pyrimidin-2-yl)picolinamide]	60 to 79	1 to 9.9

More lines, now with the values ahead:

Dmax [%]	DC50 [nM]	SMILES
> 80	< 1	Cc1cc2c(N3CCOc4cc(-c5ccc(C(=O)NCC#Cc6ccc7occ(C8CCC(=O)NC8=O)c7c6)nc5)ncc43)cc(C3CCOCC3)cc2n(C)c1=O (stereo not shown) [Example B109, 5-(4-(1,3-dimethyl-2-oxo-7-(tetrahydro-2H-pyran-4-yl)-1,2-dihydroquinolin-5-yl)-3,4-dihydro-2H-pyrido[4,3-b][1,4]oxazin-7-yl)-N-(3-(3-(2,6-dioxopiperidin-3-yl)benzofuran-5-yl)prop-2-yn-1-yl)picolinamide]
> 80	1 to 9.9	COC1CN(c2cc(N3CCOc4cc(-c5ccc(C(=O)NCC#Cc6ccc7occ(C8CCC(=O)NC8=O)c7c6)nc5)c(F)cc43)c3cc(C)c(=O)n(C)c3c2)C1 (stereo not shown) [Example B113, N-(3-(3-(2,6-dioxopiperidin-3-yl)benzofuran-5-yl)prop-2-yn-1-yl)-5-(6-fluoro-4-(7-(3-methoxyazetidin-1-yl)-1,3-dimethyl-2-oxo-1,2-dihydroquinolin-5-yl)-3,4-dihydro-2H-benzo[b][1,4]oxazin-7-yl)picolinamide]
> 80	< 1	Cc1cc2c(N3CCN(C)c4cc(-c5ccc(C(=O)NCC#Cc6cc7c(C8CCC(=O)NC8=O)cccc7o6)nc5)ncc43)cccc2n(C)c1=O (stereo not shown) [Example B114, 5-(4-(1,3-dimethyl-2-oxo-1,2-dihydroquinolin-5-yl)-1-methyl-1,2,3,4-tetrahydropyrido [3,4-b]pyrazin-7-yl)-N-(3-(4-(2,6-dioxo-piperidin-3-yl)benzofuran-2-yl)prop-2-yn-1-yl)picolinamide]
> 80	1 to 9.9	Cc1cc(N2CCCc3nc(-c4ccc(C(=O)NCC#Cc5cc6c(C7CCC(=O)NC7=O)cccc6o5)nc4)ncc32)c2cc(C)c(=O)n(C)c2n1 (stereo not shown) [Example B118, N-(3-(4-(2,6-dioxopiperidin-3-yl)benzofuran-2-yl)prop-2-yn-1-yl)-5-(5-(2,6,8-trimethyl-7-oxo-7,8-dihydro-1,8-naphthyridin-4-yl)-5,6,7,8-tetrahydropyrido[3,2-d]pyrimidin-2-yl) picolinamide]
> 80	1 to 9.9	Cc1cc(N2CCCc3nc(-c4ccc(C(=O)NCC#Cc5cc6c(C7CCC(=O)NC7=O)nccc6o5)nc4)ncc32)c2cc(C)c(=O)n(C)c2c1 (stereo not shown) [Example B120, N-(3-(4-(2,6-dioxopiperidin-3-yl)furo[3,2-c]pyridin-2-yl)prop-2-yn-1-yl)-5-(5-(1,3,7-trimethyl-2-oxo-1,2-dihydroquinolin-5-yl)-5,6,7,8-tetrahydropyrido[3,2-d]pyrimidin-2-yl) picolinamide]
